According to ChEMBL document CHEMBL6087400, “Synthesis and Biological Evaluation of New Chalcogen Semicarbazone (S, Se) and Their Azole Derivatives against Chagas Disease” (J Med Chem, 2024):
Values belong to the compound of their own block, whether it stands above or below them. The source made the active and inactive calls. The rule behind the calls is not given here.

Assays:
[1] = test system: Trypanosoma cruzi; experiment: Anti-trypanosomal activity against Trypanosoma cruzi CAI/72 infected in mouse C2C12 cells at 10 uM incubated for 48 hrs relative to control; format: functional
[2] = Selectivity index, ratio of CC50 for mouse C2C12 cells to EC50 for Trypanosoma cruzi CAI/72 intracellular amastigotes; format: toxicity, cell-based; details: read-out: Selectivity Index
[3] = Antioxidant activity assessed as inhibition of DPPH radical scavenging activity at 0.06 mg/ml measured after 2 hrs by absorbance based analysis relative to control; format: functional; set-up: scale not given: the % may be the effect or the level left
[4] = Antioxidant activity assessed as inhibition of DPPH radical scavenging activity at 0.03 mg/ml measured after 2 hrs by absorbance based analysis relative to control; format: functional; set-up: scale not given: the % may be the effect or the level left
[5] = Antioxidant activity assessed as inhibition of DPPH radical scavenging activity at 0.015 mg/ml measured after 2 hrs by absorbance based analysis relative to control; format: functional; set-up: scale not given: the % may be the effect or the level left
[6] = Half life in female Balb/c mouse at 50 mg/kg, po by mass spectrometry; format: ADME, organism-based; details: in vivo
[7] = target: Cruzipain (Trypanosoma cruzi) (UniProt P25779); experiment: Inhibition of Trypanosoma cruzi cruzain using Z-FR-AMC as substrate measured after 10 mins relative to control
[8] = test system: C2C12; experiment: Cytotoxicity against mouse C2C12 cells assessed as reduction in cell viability at 3 uM incubated for 72 hrs by DAPI staining based microscopic analysis relative to control; format: toxicity; details: c2c12, 72 h
[9] = test system: C2C12; experiment: Cytotoxicity against mouse C2C12 cells assessed as reduction in cell viability at 10 uM incubated for 72 hrs by DAPI staining based microscopic analysis relative to control; format: toxicity; details: c2c12, 72 h
[10] = test system: C2C12; experiment: Cytotoxicity against mouse C2C12 cells assessed as reduction in cell viability at 40 uM incubated for 72 hrs by DAPI staining based microscopic analysis relative to control; format: toxicity; details: c2c12, 72 h

Cruzipain (Trypanosoma cruzi), sequence (P25779 123-467 limits assumed): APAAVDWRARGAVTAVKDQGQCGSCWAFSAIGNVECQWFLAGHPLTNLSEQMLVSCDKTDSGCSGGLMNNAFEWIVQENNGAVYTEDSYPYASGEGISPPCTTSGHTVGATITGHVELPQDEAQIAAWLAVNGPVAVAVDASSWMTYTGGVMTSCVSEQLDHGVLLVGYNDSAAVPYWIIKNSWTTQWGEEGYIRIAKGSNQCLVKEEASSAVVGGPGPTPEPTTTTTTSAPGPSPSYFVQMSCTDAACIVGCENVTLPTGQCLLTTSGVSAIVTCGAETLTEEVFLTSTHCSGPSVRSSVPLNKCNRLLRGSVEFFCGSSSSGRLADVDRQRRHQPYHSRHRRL

Structure (SMILES): C/C(=N\Nc1nc(C)cs1)c1ccc([N+](=O)[O-])cc1
- Activity [1]: inactive

Structure (SMILES): C/C(=N\Nc1nc(C)c[se]1)c1cccc([N+](=O)[O-])c1.Cl
- selectivity ratio [2]: > 32.5
- Activity [3]: 78.3%
- Activity [4]: 78%
- Activity [5]: 77.3%
- half-life [6]: 1 h

Structure (SMILES): COc1ccc(/C(C)=N/NC(N)=[Se])c(OC)c1
- Activity [1]: inactive

Structure (SMILES): C/C(=N\Nc1nc(C)c[se]1)c1ccsc1
- selectivity ratio [2]: > 2.68
- inhibition [7]: inactive

Structure (SMILES): CN1CCN(C(=O)N[C@@H](Cc2ccccc2)C(=O)N[C@H](/C=C/S(=O)(=O)c2ccccc2)CCc2ccccc2)CC1 [K-777]
- Activity [8]: > 100%

Structure (SMILES): C/C(=N\NC(N)=S)c1cccc(Cl)c1
- selectivity ratio [2]: ~1

Structure (SMILES): C/C(=N\NC(N)=S)[C@]12CC3C[C@@H](C[C@H](C3)C1)C2
- inhibition [7]: 5.06%

Structure (SMILES): C/C(=N\Nc1nc(C)c[se]1)C12CC3CC(CC(C3)C1)C2
- inhibition [7]: inactive

- inhibition [7]: 98.8%
Structure (SMILES): C/C(=N\NC(N)=S)c1ccc(C#N)cc1
- Activity [9]: > 100%
- Activity [1]: 31.58%

Structure (SMILES): C/C(=N\Nc1nc(C)cs1)c1ccc(C(F)(F)F)cc1
- Activity [1]: inactive

Structure (SMILES): C/C(=N\NC(N)=[Se])c1ccc(F)c(F)c1
- Activity [1]: inactive

Structure (SMILES): C/C(=N\NC(N)=[Se])c1ccc(Br)cc1
- selectivity ratio [2]: > 13

Structure (SMILES): C/C(Cc1cccc(Cl)c1)=N\NC(N)=S
- selectivity ratio [2]: > 3.42

Structure (SMILES): C/C(=N\NC(N)=S)C12CC3C[C@H](C1)C[C@H](C3)C2
- Activity [9]: > 100%
- Activity [1]: 38.73%

Structure (SMILES): C/C(=N\Nc1nc(C)c[se]1)c1cccc(Cl)c1
- selectivity ratio [2]: > 19

Structure (SMILES): O=C1O[C@H]([C@@H](O)CO)C(O)=C1O
- Activity [3]: 80.3%
- Activity [4]: 80.3%
- Activity [5]: 65.3%

- inhibition [7]: 62.8%
Structure (SMILES): C/C(=N\NC(N)=S)c1ccsc1
- Activity [9]: > 100%
- Activity [1]: 10.89%

Structure (SMILES): O=C(Cn1ccnc1[N+](=O)[O-])NCc1ccccc1 [BENZNIDAZOLE]
- selectivity ratio [2]: > 6.91
- Activity [10]: > 100%

Structure (SMILES): COc1ccc(/C(C)=N/Nc2nc(C)c[se]2)c(OC)c1
- inhibition [7]: inactive

Structure (SMILES): COc1cccc(/C(C)=N/Nc2nc(C)c[se]2)c1
- selectivity ratio [2]: > 3.75
